Reference: paper PMC8190080, “Tanshinones induce tumor cell apoptosis via directly targeting FHIT” (Scientific Reports, 2021)

What was measured:
FHIT [1] = biological target: T1, FHIT (Homo sapiens, UniProt P49789); assay: MST assay of the binding between tanshinone compounds and FHIT; conditions: Fig. 4B, FHIT preparation not stated
T1 construct: GST (N, cleaved yes); made in house; host or cells: E. coli BL21 (DE3)
Protocol: Ten million 293 cells overexpressing GFP-tagged FHIT or free GFP were lysed in 0.5 mL M-PER mammalian protein extraction reagent (Thermo Fisher Scientific). Cell lysates were diluted in PBS buffer to a final concentration at which the fluorescent signals of the GFP proteins were suitable for the detection of the Monolith NT.115 instrument (NanoTemper Technologies). A single point screening assay was developed against GFP-FHIT protein to find potential binding molecules from compound libraries (L1021,APExBIO). For binding affinity detection, a 10µL protein sample was mixed with 10µL ligand at various concentrations as indicated. And the purified proteins were labeled by Red- NHS kit in accordance with the manufacturer’s protocol (MO-L011, NanoTemper Technologies). Then the mixture solutions were loaded into NT.115 standard coated capillaries or premium coated capillaries (NanoTemper Technologies), and the MST measurements were performed at 25 °C. The fluorescence signal during the thermophoresis was monitored and the change in fluorescence was analyzed by software. The Kd was calculated by fitting a standard binding curve to the series diluted ligands. And data were analyzed by GraphPad Prism 7.0.

FHIT [2] = biological target: T1, FHIT; assay: Fluorescent thin layer enzyme assay with ApppBODIPY (FHIT); type: biochemical; conditions: 10 nM Fhit, 5 µM ApppBODIPY, TLC; read-out: IC50, FHIT hydrolase activity (TLC assay)
Protocol: Fluorescent substrates ApppBODIPY at 5 µM were incubated with purified Fhit protein 10 nM in reactions at 25 °C containing 20 mM Tris–HCl, pH7.5, 150 mM NaCl, and 5 mM MgCl2. Competitive compounds, when indicated at series concentrations, were mixed with a fluorescent substrate. Reaction samples (0.6µL) were spotted on silica TLC plates (MERCK) at 60–120 s intervals. Plates were air-dried and developed in 2-propanol:NH4OH:1,4-dioxane: H2O (50:35:8:7) as reported before. Developed plates were imaged by fluorescein blot (ChemiDoc, Bio-Rad).

WT HCT116 cells = assay: Apoptosis detection by flow cytometry (Annexin V/PI), WT HCT116 cells; type: cell-based, human
Protocol: (§1) HCT116 cells treated with indicated compounds were digested with 0.25% trypsin (Gibco). The cells were harvested by centrifugation at 1000 rpm for 5 min. The trypsinization time should not be too long to prevent false positives. The cells were washed twice with pre-cooled PBS. The cells were resuspended with 1 × annexin-binding buffer and the cell density was adjusted to ~ 1 × 10^6 cells/ml. Then 5µL Alexa Fluor 488 annexin V and 1 µL 100 µg/mL PI working solution (V13241, Invitrogen) was added to each 100 µL cell suspension. The cells were incubated at room temperature in the dark for 15 min. After the incubation, 400 µL 1 × annexin-binding buffer was added to the cells, mixed gently, and kept the samples on ice. Analyze the stained cells by flow cytometry as soon as possible. The V-FITC positive and PI negative cells were recorded as apoptotic cells.

FHIT KO HCT116 cells = assay: Apoptosis detection by flow cytometry (Annexin V/PI), FHIT KO HCT116 cells; type: cell-based, human; conditions: for apoptosis: KO cells
Description: FHIT gene was deleted in HCT116 cells by CRISPR/Cas9 genome editing. A plasmid pL- CRISPR.EFS.GFP (#57,818, Addgene) encoding both the Cas9 protein and the sgRNA was used. The Cas9 sequence is coupled to a P2A site and EGFP. Expression of the Cas9 protein results in simultaneous expression of EGFP, allowing for the selection of positively transfected cells. Two sgRNA toward exon5 and exon6 of the FHIT gene, respectively, were designed by using the optimized CRISPR design online tool (http://crispr.cos.uni-heidelberg.de). The primers sequences of the sgRNA used were shown as below: sgRNA1 for exon5 forward, 5’[…]3’, reverse, 5’[…] GGACAC3’; sgRNA2 for exon6 forward, 5’[…]3’, reverse, 5’[…]3’. Plasmids containing the right insertion were then sequenced by Sangon Biotech Company (Shanghai, China). The two CRISPR/Cas9 plasmids were co-transfected into HCT116 cells as 1:1 using Lipofectamine3000 (Invitrogen). After 48 h, EGFP positive single cell was sorted into 96-well plates and the plates were left in the incubator for 7–14 days or until small colonies could be seen by the naked eye. Genomic DNA of each well was extracted by QuickExtract DNA Extraction Solution (Epicenter, Madison, WI) to do PCR identification. And the PCR products were then Sanger-sequenced to identify clones that would result in frameshifts and truncated protein products. Sequence alignment and genomic PCR primers were shown as below: forward, 5′[…]3′, revers, 5′[…]3′.
as §1, with “The cells were incubated at room temperature in the dark for 15 min. After the incubation, 400 µL 1 × annexin-binding buffer was added to the cells, mixed gently, and kept the samples on ice. Analyze the stained cells by flow cytometry as soon as possible.” left out

FHIT [3] = biological target: T1, FHIT; assay: FHIT hydrolase activity detection assay (Ap3A, ADP-Glo); type: biochemical; conditions: 5 nM FHIT, 500 nM Ap3A, ADP production by ADP-Glo
Protocol: 5 nM FHIT protein was mixed with series diluted compounds as indicated in assay buffer (20 mM Tris–HCl, 2 mM DTT, 5 mM MgCl2, pH7.5) in a final DMSO concentration of 1% in a total volume of 20 μL. The mixtures were incubated for 30 min at 25 °C, then 500 nM Ap3A was added. After incubation at 25 °C for 5 min, the production of ADP in the reaction system was detected by ADP-Glo reagent (V6930, Promega) according to the manufacturer’s protocol in 384-well. Luminescence was read by spark (TECAN), an integration time of 1 s per well. And the data were analyzed by GraphPad Prism 7.0.

FHIT (H96N) = biological target: T2, FHIT (H96N) (Homo sapiens, UniProt P49789, H96N); assay: Fluorescence polarization assay, FHIT H96N-ApppBODIPY binding inhibition; conditions: 5 µM FHIT (H96N), 1 µM ApppBODIPY
T2 construct: GST (N, cleaved yes); made in house; host or cells: E. coli BL21 (DE3)
Protocol: The binding of FHIT (H96N) to fluorescein-labeled substrates ApppBODIPY was analyzed by fluorescence polarization assay in 384-well format for dose–response curve studies using spark instrument (TECAN) according to the protocol reported before. And 5 µM FHIT (H96N) protein was incubated with 1 µM fluorescein-labeled substrates in buffer A (25 mM Tris–HCl, pH 7.5, 5 mM MgCl2 and 2 mM DTT) with series diluted inhibitors as indicated. Each sample was allowed to equilibrate in the solution for 30 min. After 30 min, the steady-state fluorescence anisotropy (mP) was measured. A second reading was taken after 10 min, to ensure that the mixture was well-equilibrated and stable. Less than 5% change was observed between 30 and 40 min measurements. The IC50 value was determined by fitting the binding curves using GraphPad Prism 7.0.

HCT116 cells [4] = assay: CCK-8 assay for cell inhibitory rate; type: cell-based, human; conditions: WT HCT116 cells, 2 µM
Protocol: The CCK-8 (Cell-Counting Kit-8) assay was used to detect the cells’inhibitory rate following the manufacturer’s protocol (APExBIO). Cells were seeded into 96-well plates at the density of 4 × 10^3(cells/well) overnight at 37 °C. After that, the culture medium was removed and the cells were treated with different concentrations of TSA (0, 1, 2, 5, 10 µM) or STS (0, 10, 25, 50, 100 µM) for 24 h, 48 h, 72 h respectively. Then 10 μL CCK-8 reagent was added into each well and incubated for another 2 h, OD450 was measured by a microplate reader (spark, TECAN).

HCT116 cells [5] = assay: Colony formation assay; type: cell-based, human; conditions: 1 µM, 14 days
Protocol: ENPP1 hydrolase activity detection assay
ENPP1 protein (4ng/µl) was mixed with series diluted compounds as indicated in assay buffer (50mM Tris-HCl, 2mM CaCl2, 2mM MgCl2, pH9.0) in a final DMSO concentration of 1% in a total volume of 20μL. The mixtures were incubated for 30min at 25°C, then 4µM Ap3A was added. After incubation at 25°C for 10min, ENPP1 should be inactivated at 85°C for 5min.
Then the production of ADP in the reaction system was detected by ADP-Glo reagent (V6930, Promega) according to the manufacturer’s protocol in 384-well. Luminescence was read by spark (TECAN), an integration time of 1 second per well. And the data were analyzed by […]
Fluorescent thin layer enzyme assay for ENPP1
Small molecules, when indicated at series concentrations, were mixed with 2.5µM the fluorescent substrate ApppBODIPY. Then, 10nM purified ENPP1 protein was added to the reaction system at 25°C containing 50mM Tris-HCl pH9.0, 2mM CaCl2, 2mM MgCl2. Reaction samples (0.6µL) were spotted on silica TLC plates (Merck) at 60–120s intervals. Plates were air-dried and developed in 2-propanol:NH4OH:1,4-dioxane: H2O (50:35:8:7) as reported before. Developed plates were imaged by fluorescein blot (ChemiDoc, Bio-rad).
Colony formation assay was performed as described before. Briefly, ~200/well single cells were planted into 6-well plate. […]

T1 sequence (P49789 whole entry): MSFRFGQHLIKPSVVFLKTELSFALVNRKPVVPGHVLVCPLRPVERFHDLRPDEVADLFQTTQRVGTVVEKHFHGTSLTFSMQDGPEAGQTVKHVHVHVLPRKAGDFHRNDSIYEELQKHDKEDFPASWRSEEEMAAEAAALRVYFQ
T2 sequence (P49789 whole entry H96N): as the sequence (P49789 whole entry) above, with H96N counted along it

Work on `Cc1coc2c1C(=O)C(=O)c1c-2ccc2c(C)cccc12` [TanI, tanshinone I] yielded a Kd (FHIT [1]) of 466 ± 60 nM, an IC50 (FHIT [2]) of 4000 to 6000 nM and an apoptosis (WT HCT116 cells; 10 µM) of 31.66%. It also gave an apoptosis (FHIT KO HCT116 cells; 10 µM) of 12.7%.

With `Cc1ccc(C(=O)Nc2ccc(S(=O)(=O)O)c3cc(S(=O)(=O)O)cc(S(=O)(=O)O)c23)cc1NC(=O)c1cccc(NC(=O)Nc2cccc(C(=O)Nc3cc(C(=O)Nc4ccc(S(=O)(=O)O)c5cc(S(=O)(=O)O)cc(S(=O)(=O)O)c45)ccc3C)c2)c1` [suramin] the IC50 (FHIT [3]) was 260 ± 80 nM and the IC50 (FHIT (H96N)) was 2600 ± 44 nM.

In the case of `C[C@H]1COC2=C1C(=O)C(=O)c1c2ccc2c1CCCC2(C)C` [CST, Cryptotanshinone], the Kd (FHIT [1]) is reported as 123 ± 31.7 nM and the IC50 (FHIT [2]) is reported as 4000 to 6000 nM.

In the case of `Cc1coc2c1C(=O)C(=O)c1c-2ccc2c1CCCC2(C)C` [TSA, Tanshinone IIA], the Kd (FHIT [1]) is reported as 112 ± 27.3 nM, the IC50 (FHIT [2]) is reported as 4000 to 6000 nM and the “growth of HCT116 cells (CCK8)” value (HCT116 cells [4]) is reported as “significantly inhibits the growth”. The “colony formation of HCT116 cells” value (HCT116 cells [5]) was “clearly abolished the colony formation”, the apoptosis rate (WT HCT116 cells; 5 µM, 24 h) was 13.5% and the apoptosis rate (FHIT KO HCT116 cells; FHIT KO cells, 5 µM, 24 h) was 4.9%.

Compound `CC[C@@]1(O)C(=O)OCc2c1cc1n(c2=O)Cc2cc3ccccc3nc2-1` [CPT, camptothecin] has an apoptosis (WT HCT116 cells; 1 µM) of 24.9% and an apoptosis (FHIT KO HCT116 cells; 1 µM) of 5.3%.
